This is an account of results in US7700616B2, “Compounds and amyloid probes thereof for therapeutic and imaging uses” (Molecular Neuroimaging, LLC., priority 2006, dated 2010).

Data set [1] can be described thus: Protein binding (free ligand fraction in plasma). Type of data set: in vitro ADME. The settings on record: obtained amyloid probe. Here is the method: (§1) The labeling of the compounds of the invention was carried out under standard conditions (Na^123/125I, oxidizer, acidic medium) at ambient temperature. Radiochemical yields averaged 35-90%. The labeled compounds were readily purified by reverse-phase HPLC, and their radiochemical purity exceeded 95%.

A further data set in a line: Lipophilicity (LogD). The class given is physicochemical. The settings on record: pH 7.4; obtained amyloid probe. Here is the method: as §1

As for `CN(C)c1ccc(-n2nc3ccc(I)cc3n2)cc1` [MNI-187], the “free ligand fraction in plasma” value in data set [1] is listed as 4%. Also, in “Lipophilicity (LogD)”, the logD worked out at 2.7.
